Results from patent publication US20260325506A1, “METHODS OF TREATING POST-TRAUMATIC STRESS DISORDER AND ALCOHOL USE DISORDER” (FLORIDA ATLANTIC UNIVERSITY RESEARCH CORPORATION, priority 2023, published 2026).
“Also recorded” adds a separate entry of the source.

What was measured:
[1] = tested on: SPS-induced allodynia and anxiety-like behaviors; settings: less selective NOP receptor antagonist than SB; cited from earlier work
delta receptor = settings: PPL-138 like buprenorphine; cited from earlier work
kappa receptor = settings: PPL-138 like buprenorphine; cited from earlier work
[2] = tested on: SPS-induced allodynia in Sprague Dawley (SD) rats; assay: tactile sensitivity (allodynia), paw withdrawal threshold (PWT) after SPS; assay type: in vivo; settings: for allodynia (PWT, FIG. 4A): male SPS rats; for paw withdrawal threshold, allodynia (FIG. 2A): male SD rats, 1 mg/kg i.p., days 14, 21 and 28, SPS vs SPS+PPL-138, p<0.05 (Tukey)
Method: (§1) SPS procedure: 2 h of complete restraint in disposable plastic holders, followed by grouped (2-3 rats) forced swim for 20 min in a cylindrical tank (46 cm tall×20 cm in diameter) filled with 22-25° C. water to a depth of 30 cm. After 15 min recovery and drying period, rats are exposed to diethyl ether until loss of consciousness and left undisturbed (except for drug or vehicle injection) and alone for 7 days, after which they are pair housed. All rats are housed with soft bedding, observed for signs of pain or discomfort: weight loss, lack of grooming, or porphyrin staining; any such rats is excluded from study.
(§2) Drug Treatment: PPL-138 (0.3 and 1 mg/kg) is dissolved in the same vehicle as 10 mg/kg SB (3% DMSO+97% of 0.5% hydroxypropyl cellulose (HPC)). Drug treatment (i.p.) begins immediately after exposure to ether and continues every other day thereafter. Ctr and SPS rats receive vehicle (3% DMSO+97% 0.5% HPC) injections.
(§3) Degree of enhanced nociceptive sensitivity by SPS to tactile and thermal stimuli were reduced in this cohort likely a result of group housing during the first 7 days instead of our usual solo housing (FIG. 2). […] PPL-138 reduced serum N/OFQ levels compared to SPS (p<0.05 by Tukey's post-hoc test).
(§4) Control (Ctr) and SPS-treated male and female SD rats are treated 3 times each week with Veh, PPL-138 (0.3 and 1 mg/kg, s.c.) or the NOP antagonist SB612111 (SB; 3 mg/kg, i.p.). […] SB alleviates TBI- and 6-OHDA Parkinson disease model-induced locomotor deficits and brain hypoxia.
(§5) Sensitivity to tactile and thermal sensitivity in males and females was determined by paw withdrawal threshold to increasing pressure (PWT; tactile) and paw withdrawal latency to a thermal stimulus (PWL) (FIG. 4). There was a significant interaction between time and treatment for sensitivity to both tactile (A) and thermal (C) stimuli for males ([F (28, 228)=1.708, p=0.0182] and [F (28, 228)=4.276, p<0.0001]), respectively, as well as for thermal sensitivity (D) in females [F (28, 164)=2.286, p=0.0007]. […] Allodynia was reversed by 0.3 mg/kg PPL-138 and by SB in males, and by 1 mg/kg PPL-138 in females (#p<0.05). Thermal hyperalgesia was reversed by both doses of PPL-138 and SB in males, and by 1 mg/kg PPL-138 and SB in females.

[3] = tested on: SPS induced anxiety-like behaviors in Sprague Dawley (SD) rats; assay: Elevated Plus Maze (EPM), SPS induced anxiety-like behaviors; assay type: in vivo; settings: for Anxiety index (FIG. 3B): female SD rats (n=6, not yet fully powered)
Method: as §1
Elevated Plus Maze (EPM): Rats will be tested for anxiety-like behaviors. The percentage of open arm entries (number of entries into the open arms divided by total number of entries in both arms), time spent in the open arms, total distance traveled, and total time spent immobile are noted. The anxiety index (AI) is calculated where total exploration on the maze represents the total number of arm entries: Anxiety Index=1−[[(time spent in open arms/total time on the maze (300 sec))+(number of entries into open arms/total number of arm entries)]/2]. Each animal is tested at 9 and 30 days post-SPS.
as §2
Anxiety index reflects a combination of three anxiety-like behaviors.
as §4

[4] = tested on: 6-OHDA Parkinson disease model-induced locomotor deficits and brain hypoxia; settings: cited from earlier work
neuropathy = settings: models of neuropathy; cited from earlier work
[5] = tested on: TBI-induced locomotor deficits and brain hypoxia; settings: cited from earlier work
[6] = tested on: irritable bowel syndrome (IBS); settings: models of irritable bowel syndrome (IBS); cited from earlier work
[7] = tested on: SPS-induced thermal hyperalgesia in Sprague Dawley (SD) rats; assay: thermal sensitivity (hyperalgesia), paw withdrawal latency (PWL) after SPS; assay type: in vivo; settings: for thermal hyperalgesia (PWL, FIG. 4D): female SPS rats; for thermal hyperalgesia (PWL, FIG. 4D) / thermal hyperalgesia (PWL, FIG. 4C): 28 days; for thermal hyperalgesia (PWL, FIG. 4C): male SPS rats
Method: as §1, §2, §3, §4, §5

kappa opioid receptor = settings: all four members of the opioid receptor family; cited from earlier work
delta opioid receptor = settings: all four members of the opioid receptor family; cited from earlier work
mu opioid receptor [8] = settings: less than buprenorphine; cited from earlier work
NOP receptor [9] = settings: higher than buprenorphine; cited from earlier work
N/OFQ = assay: serum N/OFQ levels after SPS; assay type: in vivo, Sprague Dawley (SD) rats; settings: end of pilot study, compared to SPS, p<0.05 (Tukey); ANOVA F (2, 12)=4.147, p=0.0421
Method: as §1, §2, §3

mu opioid receptor [10] = settings: all four members of the opioid receptor family; cited from earlier work
NOP receptor [11] = settings: all four members of the opioid receptor family; cited from earlier work

CCc1ccc(OCc2ccccc2C(=O)Nc2ccc3nc(C)cc(N)c3c2)cc1 [JTC-801]
SPS-induced allodynia [1]: reversed
SPS-induced anxiety-like behaviors [1]: reversed

CO[C@@]12CC[C@@]3(C[C@@H]1[C@](C)(O)C(C)(C)C)[C@H]1Cc4ccc(O)c5c4[C@@]3(CCN1CC1CC1)[C@H]2O5 [buprenorphine, reference compound]
activity at delta receptor (delta receptor): antagonist
activity at kappa receptor (kappa receptor): antagonist

Cc1cccc2c1CC[C@H](CN1CCC(c3c(Cl)cccc3Cl)CC1)C[C@@H]2O [SB612111]
allodynia (PWT, FIG. 4A) ([2]; SB 3 mg/kg i.p., 28 days, #p<0.05): reversed
Anxiety index (FIG. 3B) ([3]; SB 3 mg/kg i.p., day 9 post-SPS): significant effect
Anxiety index (FIG. 3A) ([3]; male SD rats, SB 3 mg/kg i.p., day 30 post-SPS): significant effects
brain hypoxia [4]: alleviates
locomotor deficits [4]: alleviates
antinociception (neuropathy): produces antinociception
brain hypoxia [5]: alleviates
locomotor deficits [5]: alleviates
antinociception [6]: produces antinociception
thermal hyperalgesia (PWL, FIG. 4D) ([7]; SB 3 mg/kg i.p.): reversed
thermal hyperalgesia (PWL, FIG. 4C) ([7]; SB 3 mg/kg i.p.): reversed

O=C(CCc1ccccc1)O[C@@]12CCC(=O)[C@@H]3Oc4c(O)ccc5c4[C@@]31CCN(CC1CC1)[C@@H]2C5 [PPL-138, 14β-(3-phenylpropanoyl)-17-cyclopropylmethyl-7,8-dihydronoroxymorphinone]
Ki (kappa opioid receptor): < 10 nM
activity at delta receptor (delta receptor): antagonist
allodynia (FIG. 4) ([2]; SD rats, overall statement): reduces
allodynia (PWT, FIG. 4B) ([2]; female SPS rats, PPL-138 1 mg/kg s.c., 28 days, #p<0.05): reversed
paw withdrawal threshold, allodynia (FIG. 2A) ([2]; 1 mg/kg): SPS rats had significantly lower paw withdrawal threshold
paw withdrawal threshold, allodynia (FIG. 2A) ([2]; listed as PPL 138, 1 mg/kg): reversed
allodynia (PWT, FIG. 4A) ([2]; PPL-138 0.3 mg/kg s.c., 28 days, #p<0.05): reversed
development of PTSD-induced nociceptive sensitivity ([2]; males and females, overall conclusion (tactile and thermal)): reverses
Ki (delta opioid receptor): < 10 nM
Anxiety index (FIG. 3B) ([3]; PPL-138 1 mg/kg s.c., day 30 post-SPS): significant effect
anxiety-like behaviors (FIG. 3B) ([3]; female SD rats, overall statement): reduces
distance travelled ([3]; male SD rats, 1 mg/kg i.p., between groups (Ctr, SPS, SPS+PPL-138)): no differences
open arm time (FIG. 1B) ([3]; male SD rats, 1 mg/kg i.p., days 9 and 30 post-SPS, treatment F (2,12)=5.066, p<0.05, PPL 138+SPS vs SPS *p<0.05, **p<0.01 (Tukey), 1 mg/kg): increased; also recorded: significant effect
anxiety index (FIG. 1A) ([3]; male SD rats, 1 mg/kg i.p., days 9 and 30 post-SPS, treatment F (2,12)=9.912, p<0.005, PPL 138+SPS vs SPS *p<0.05, **p<0.01 (Tukey), 1 mg/kg): reduced; also recorded: significant effect
open arm entries (FIG. 1C) ([3]; male SD rats, 1 mg/kg i.p., days 9 and 30 post-SPS, treatment F (2,12)=11.99, p<0.005, PPL 138+SPS vs SPS *p<0.05, **p<0.01 (Tukey), 1 mg/kg): increased; also recorded: significant effect
Anxiety index (FIG. 3A) ([3]; male SD rats, PPL-138 0.3 mg/kg s.c., day 30 post-SPS): significant effects
Anxiety index (FIG. 3A) ([3]; male SD rats, PPL-138 1 mg/kg s.c., day 9 post-SPS): significant effect
Anxiety index (FIG. 3A) ([3]; male SD rats, PPL-138 1 mg/kg s.c., day 30 post-SPS): significant effects
anxiety-like behaviors (FIG. 3A) ([3]; male SD rats, overall statement): reduces
development of PTSD-induced anxiety-like behaviors ([3]; males and females, overall conclusion): reverses
efficacy at mu (mu opioid receptor [8]): very low efficacy
partial agonist activity at NOP receptor (NOP receptor [9]): partial agonist
serum N/OFQ levels (N/OFQ): reduced
hyperalgesia (FIG. 4) ([7]; SD rats, overall statement): reduces
thermal hyperalgesia (PWL, FIG. 4D) ([7]; PPL-138 1 mg/kg s.c.): reversed
thermal sensitivity (FIG. 2B) ([7]; male SD rats, 1 mg/kg i.p., treatment F (2, 12)=7.56, p<0.01): reversed
thermal hyperalgesia (PWL, FIG. 4C) ([7]; PPL-138 0.3 mg/kg s.c. (both doses)): reversed
thermal hyperalgesia (PWL, FIG. 4C) ([7]; PPL-138 1 mg/kg s.c. (both doses)): reversed
Ki (mu opioid receptor [10]): < 10 nM
activity at kappa receptor (kappa receptor): antagonist
Ki (NOP receptor [11]): < 10 nM
